Patent US9630941B2 (priority 2008, dated 2017)

Columns and labels:
[1] = Stability of THC-Val-HS HME transmucosal patch; settings: for Assay (as a % of theoretical amount): HME transmucosal patch
[2] = Thermal stability, 120° C. for 10 min; format: physicochemical
Method: C. Thermal Stability—120° C. for 10 min.

[3] = system: intraocular pressure (IOP) induced model of glaucoma; assay: Rabbit glaucoma model, IOP lowering after topical instillation; settings: for Peak IOP drop, IOP as % of the baseline IOP: 50 μL topical
[4] = Maximum amount dissolved in topical formulations; format: physicochemical
[5] = Porcine buccal tissue homogenate stability; format: in vitro ADME; settings: protein concentration 2 mg/ml
Method: (§1) b. Porcine Buccal Tissue Homogenate Stability
(§2) Protein Concentration 2 mg/ml

[6] = In vivo ocular bioavailability of THC after topical formulations
[7] = Bioreversion: plasma stability, porcine plasma; format: in vitro ADME
[8] = Plasma THC after rectal suppository (PEG 1000) in rat; settings: polyethylene glycol 1000 base, dose equivalent to 1 mg THC
[9] = Aqueous solubility, pH dependent; format: physicochemical
[10] = Control (IPBS) stability for the buccal homogenate study; format: physicochemical
Method: as §1, §2

[11] = Plasma THC from HME buccal patches in swine model; format: in vivo
Method: THC was used as control formulation. Plasma was sampled from each animal at predetermined times and the amount of THC in the plasma was determined.
FIG. 20: Plasma THC concentrations as a function of time from THC-Val-HS loaded HME buccal patches. Data represents the mean value from 4 pigs. The animals were maintained under anesthesia for the first 4 hours and were then allowed to come out of anesthesia and given access to food and water.
A dose dependent plasma concentration time profile was then evaluated.
Plasma THC concentrations as a function of time and dose from THC-Val-HS loaded HME patches. Data represents the mean value. The animals for maintained under anesthesia for the first 4 hours and were then allowed to come out of anesthesia and given access to food and water.

[12] = Chemical stability pH dependent at 25° C.; format: physicochemical
Method: B. Chemical Stability pH Dependent at 25° C.

[13] = THC-Val-HS 0.25% w/v in 0.1% Cremophor RH 40 + 0.02% BAK + 0.1% EDTA + 0.5% HPMC, 1 Hour
[14] = THC-Val-HS 0.26% w/v in 2.5% HPβCD + 0.5% HPMC, 1 Hour
[15] = THC-Val-HS 0.26% w/v in 2.5% HPβCD + 0.5% HPMC, 3 Hours
[16] = THC-Val-HS 10% w/w Ocular Film, 1 Hour
[17] = THC-Val-HS 10% w/w Ocular Film, 3 Hours

CCCCCc1cc(OC(=O)C(NC(=O)CCC(=O)O)C(C)C)c2c(c1)OC(C)(C)C1CCC(C)=CC21 (stereo not drawn) [THC-Valinate-HS (15), THC-valinate-hemisuccinate]
Assay (as a % of theoretical amount) ([1]; 1 Month, 25° C./60% RH): 110.6 ± 0.1% | Assay (as a % of theoretical amount) ([1]; 1 Month, 40° C./75% RH): 80.9 ± 3.9% | Assay (as a % of theoretical amount) ([1]; 3 Month, 25° C./60% RH): 108.3 ± 4.6% | Assay (as a % of theoretical amount) ([1]; Initial): 108.4 ± 0.2% | Stability in the hot-melt-extruded formulation ([1]; three month stability data): stable | Drug loading (%) [2]: 112.21 ± 4.99% | CBN content of the sample after heating ([2]; 120° C. for 10 min): 0 µg | Drug remaining ([2]; 120° C. for 10 min): 1350.13 ± 387.10 µg | THC content of the sample after heating ([2]; 120° C. for 10 min): 80.26 ± 8.59 µg | Drug remaining (%) ([2]; 120° C. for 10 min, % of initial): (96.29 ± 3.89) % | CBN content of the sample, initial ([2]; before heating): 0 µg | Initial, μg (drug itself) ([2]; before heating): 1411.49 ± 459.10 µg | THC content of the sample, initial ([2]; before heating): 96.52 ± 3.72 µg | Peak IOP drop, IOP as % of the baseline IOP ([3]; Tocrisolve emulsion, 0.97% w/v THC-Val-HS): 53±3% | IOP-time profile compared with THC ([3]; at a lower dose): significantly better than that of THC | Duration of action (time taken for IOP to return to 90% of baseline) ([3]; both formulations): about 4 hours | time to peak IOP drop after instilling ([3]; micellar solution and Tocrisolve emulsion): ≤ 90 min | Peak IOP drop, IOP as % of the baseline IOP ([3]; micellar solution, 0.89% w/v THC-Val-HS): 62±3% | maximum amount that could be dissolved ([4]; Tocrisolve emulsion): 0.97 % w/v | maximum amount that could be dissolved ([4]; micellar solution: HPβCD 15% + Cremophor RH 40 0.25% + BAK 0.01% + EDTA 0.1% + HPMC 0.5% w/v): 0.89 % w/v | K [5]: 2.96 ± 0.19 ×10^−3 min^−1 | T1/2 [5]: 23.43 ± 1.49 min | THC concentrations in aqueous humor, iris-ciliary bodies / anterior segment ocular tissues ([6]; 1 hour post topical application): significant THC concentrations | Total THC concentration, Aqueous Humor [6, 13]: 62.1 ± 12.6 ng/100 μL | Total THC concentration, Cornea [6, 13]: 1191.7 ± 231.1 ng/50 mg Tissue | Total THC concentration, Iris-Cilliary Body [6, 13]: 51.44 ± 19.5 ng/50 mg Tissue | Total THC concentration, Sclera [6, 13]: 913.4 ± 432.9 ng/250 mg Tissue | Total THC concentration, Aqueous Humor [6, 14]: 69.4 ± 16.7 ng/100 μL | Total THC concentration, Cornea [6, 14]: 1677.1 ± 172.1 ng/50 mg Tissue | Total THC concentration, Iris-Cilliary Body [6, 14]: 65.8 ± 15.9 ng/50 mg Tissue | Total THC concentration, Sclera [6, 14]: 882.2 ± 185.8 ng/250 mg Tissue | Total THC concentration, Aqueous Humor [6, 15]: 38.3 ± 10.2 ng/100 μL | Total THC concentration, Cornea [6, 15]: 1142.3 ± 415.9 ng/50 mg Tissue | Total THC concentration, Iris-Cilliary Body [6, 15]: 57.9 ± 16.1 ng/50 mg Tissue | Total THC concentration, Sclera [6, 15]: 241.8 ± 106.6 ng/250 mg Tissue | Total THC concentration, Aqueous Humor [6, 16]: 61.3 ± 32.1 ng/100 μL | Total THC concentration, Cornea [6, 16]: 1634.5 ± 756.5 ng/50 mg Tissue | Total THC concentration, Iris-Cilliary Body [6, 16]: 86.03 ± 38.2 ng/50 mg Tissue | Total THC concentration, Retina-Choroid [6, 16]: 17.02 ± 8.01 ng/50 mg Tissue | Total THC concentration, Sclera [6, 16]: 1891.2 ± 771.5 ng/250 mg Tissue | Total THC concentration, Aqueous Humor [6, 17]: 29.1 ± 14.2 ng/100 μL | Total THC concentration, Cornea [6, 17]: 1043.4 ± 614.4 ng/50 mg Tissue | Total THC concentration, Iris-Cilliary Body [6, 17]: 104.2 ± 41.2 ng/50 mg Tissue | Total THC concentration, Retina-Choroid [6, 17]: 11.9 ± 4.9 ng/50 mg Tissue | Total THC concentration, Sclera [6, 17]: 812.6 ± 501.4 ng/250 mg Tissue | K [7]: 85.54 ± 3.74 ×10^−2 min^−1 | T1/2 [7]: 8.11 ± 0.35 min | Blood levels after rectal administration [8]: significant blood levels | Aqueous Solubility ([9]; H20): 8.50 ± 6.00 µg/mL | Aqueous Solubility ([9]; Water): 16.54 ± 11.69 µM | Aqueous Solubility ([9]; pH 1.2): 0.06 ± 0.03 µg/mL | Aqueous Solubility ([9]; pH 1.2, listed as THC-Valine-HS): 0.12 ± 0.06 µM | Aqueous Solubility ([9]; pH 2): 0.09 ± 0.03 µg/mL | Aqueous Solubility ([9]; pH 2, listed as THC-Valine-HS): 0.17 ± 0.06 µM | Aqueous Solubility ([9]; pH 5): 0.35 ± 0.02 µg/mL | Aqueous Solubility ([9]; pH 5, listed as THC-Valine-HS): 0.67 ± 0.04 µM | Aqueous Solubility ([9]; pH 6): 12.74 ± 1.80 µg/mL | Aqueous Solubility ([9]; pH 6, listed as THC-Valine-HS): 24.80 ± 3.51 µM | Aqueous Solubility ([9]; pH 7): 155.67 ± 31.19 µg/mL | Aqueous Solubility ([9]; pH 7, listed as THC-Valine-HS): 303.06 ± 60.72 µM | Aqueous Solubility ([9]; pH 8): 117.04 ± 10.91 µg/mL | Aqueous Solubility ([9]; pH 8, listed as THC-Valine-HS): 227.86 ± 21.24 µM | Aqueous Solubility ([9]; pH 9): 0.02 ± 0.00 µg/mL | Aqueous Solubility ([9]; pH 9, listed as THC-Valine-HS): 0.05 ± 0.00 µM | K [10]: 0.40 ± 0.02 ×10^−3 min^−1 | Dose dependence of THC blood levels from HME patches ([11]; swine, 5, 10, 20 mg formulations): dose dependant | 11-OH-THC or carboxy metabolite THC-COOH in plasma ([11]; swine, buccal patch): not seen | THC levels in plasma from transmucosal HME patches ([11]; swine, buccal patch, listed as THC-Val-HS): Significant plasma THC levels were observed | First order rate constant ([12]; Buffer pH 5.0, 25° C.): Stable | First order rate constant ([12]; Buffer pH 7.0, 25° C.): Stable | First order rate constant ([12]; Buffer pH 9.0, 25° C.): Stable | First order rate constant ([12]; Water, 25° C.): Stable
